Measurements: PubChem BioAssay (NCI)
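Dose response: 5 concentrations. Exposure: 48 h. Format: 96-well plates. Endpoint: linear interpolation; highest concentration if not reached. GI50 marks 50% less growth. TGI: concentration producing complete growth inhibition.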

Legend:
Experiment in all cases: growth of human tumour cells (NCI), 48 h
MALME-3M melanoma = test system: MALME-3M melanoma
ACHN renal = test system: ACHN renal
LOX IMVI melanoma = test system: LOX IMVI melanoma
CAKI-1 renal = test system: CAKI-1 renal
OVCAR-5 ovarian = test system: OVCAR-5 ovarian
RPMI-8226 leukemia = test system: RPMI-8226 leukemia
HT29 colon = test system: HT29 colon
NCI-H226 lung = test system: NCI-H226 lung
UACC-257 melanoma = test system: UACC-257 melanoma
NCI-H23 lung = test system: NCI-H23 lung

| Compound | TGI (MALME-3M melanoma) | TGI (ACHN renal) | TGI (LOX IMVI melanoma) | TGI (CAKI-1 renal) | TGI (OVCAR-5 ovarian) | TGI (RPMI-8226 leukemia) | TGI (HT29 colon) | TGI (NCI-H226 lung) | TGI (UACC-257 melanoma) | TGI (NCI-H23 lung) | GI50 (MALME-3M melanoma) | GI50 (ACHN renal) | GI50 (CAKI-1 renal) | GI50 (OVCAR-5 ovarian) | GI50 (HT29 colon) | GI50 (NCI-H226 lung) | GI50 (UACC-257 melanoma) |
| --- | --- | --- | --- | --- | --- | --- | --- | --- | --- | --- | --- | --- | --- | --- | --- | --- | --- |
| CCC1(CC)C(=O)CC[C@@]2(C)C1=CC[C@H]1[C@@H]3CC[C@H](O)[C@@]3(C)CC[C@@H]12 | > 100 µM | > 100 µM | 37.8 µM | > 100 µM | > 100 µM | 32.4 µM | 28.5 µM | 87.5 µM | 82.6 µM | > 100 µM | – | – | – | – | – | – | – |
| Cc1cc2ccccc2n1CC(=O)NCC(C)C | > 100 µM | > 100 µM | > 100 µM | > 100 µM | > 100 µM | > 100 µM | > 100 µM | > 100 µM | > 100 µM | > 100 µM | – | – | – | – | – | – | – |
| CN(C)CCOC(=O)COc1ccc(Cl)cc1 | > 100 µM | > 100 µM | > 100 µM | > 100 µM | > 100 µM | – | > 100 µM | > 100 µM | > 100 µM | > 100 µM | – | – | – | – | – | – | – |
| COc1ccc(C2(c3ccc(OC)cc3)OC(=O)c3cccc4cccc2c34)cc1 | > 100 µM | > 100 µM | > 100 µM | 9.87 µM | > 100 µM | 8.8 µM | 5.98 µM | > 100 µM | > 100 µM | > 100 µM | – | – | – | – | – | – | – |
| O=c1[nH]c(=O)n(C2OC(COP(=O)(O)OP(=O)(O)O)C(O)C2O)cc1F (configuration not stated) | > 50 µM | > 44.7 µM | 23 µM | 34.8 µM | > 44.1 µM | > 50 µM | > 50 µM | 28.6 µM | > 50 µM | > 50 µM | – | – | – | – | – | – | – |
| O=C(O)/C=C(/CC(=O)O)C(=O)O | 37.3 µM | 33.3 µM | 47.1 µM | 54.1 µM | > 100 µM | 37 µM | 59.2 µM | 45.6 µM | > 100 µM | 57.2 µM | – | – | – | – | – | – | – |
| Cc1c2c3cc(O)ccc3nc-2n(C)c2ccccc12 | 3.44 µM | 10.3 µM | – | – | 8.85 µM | > 100 µM | 7.26 µM | 8.54 µM | 8.05 µM | 8.61 µM | – | – | – | – | – | – | – |
| CCN(CC)CCO/N=C1\CC[C@H]2[C@@H]3CC=C4C[C@@H](O)CC[C@]4(C)[C@H]3CC[C@]12C | 29.7 µM | > 100 µM | 31.1 µM | 30 µM | > 100 µM | 47.6 µM | 22.5 µM | 33.1 µM | 30.4 µM | 33.4 µM | – | – | – | – | – | – | – |
| CCOC(=O)c1ccc(C(=O)C(C(C)=O)C(=O)OC(C)(C)C)n1C (configuration not stated) | > 100 µM | > 100 µM | > 100 µM | > 100 µM | > 100 µM | > 100 µM | > 100 µM | > 100 µM | > 100 µM | > 100 µM | – | – | – | – | – | – | – |
| CC1=CC(O)C(O)C2(C)C1CC1OC(=O)C(O)C3C(C)C(O)C4(O)OCC13C42 (configuration not stated) | 464 µM | – | 156 µM | 205 µM | > 454 µM | 108 µM | 159 µM | 243 µM | 467 µM | 250 µM | – | – | – | – | – | – | – |
| O=C1c2[nH]cc(CN3CCNCC3)c2C(=O)c2c1c(O)c1ccccc1c2O | 13.3 µM | 3.37 µM | – | 5.94 µM | 4.13 µM | – | > 100 µM | 40.7 µM | – | – | 6.3 µM | 1.57 µM | 2.21 µM | 1.86 µM | 2.44 µM | 12.2 µM | 4.47 µM |
| O=C1NC(=S)N/C1=C/c1ccccc1O | > 100 µM | > 100 µM | > 100 µM | > 100 µM | > 100 µM | > 100 µM | > 100 µM | > 100 µM | > 100 µM | > 100 µM | – | – | – | – | – | – | – |
| CC1(C)O[C@@H](CO)[C@H]([C@@]23OC[C@H]4OC(C)(C)OC4[C@@H]2OC(C)(C)O3)O1 (some centres not stated) | > 100 µM | > 100 µM | > 100 µM | – | > 100 µM | > 100 µM | > 100 µM | > 100 µM | – | > 100 µM | – | – | – | – | – | – | – |
| C#CCNC(Cc1cnc[nH]1)C(=O)O (configuration not stated) | > 100 µM | > 100 µM | > 100 µM | > 100 µM | > 100 µM | > 100 µM | > 100 µM | > 100 µM | > 100 µM | – | – | – | – | – | – | – | – |
| O=C1/C(=C/c2ccccc2)CCc2ccc(Cl)nc21 | 27.2 µM | 27.4 µM | – | 10.3 µM | 33.4 µM | 7.88 µM | 3.78 µM | 61.9 µM | 20.4 µM | 45.5 µM | – | – | – | – | – | – | – |
| COc1ccc(C(O)c2ccc3c(c2)OCO3)cc1 (configuration not stated) | > 100 µM | > 100 µM | > 100 µM | > 100 µM | > 100 µM | – | > 100 µM | > 100 µM | > 100 µM | > 100 µM | – | – | – | – | – | – | – |
| N#CC1=C(N)C(C#N)(C#N)C(c2ccc(F)cc2)C=C1C1CC1 (configuration not stated) | 26.8 µM | 25.6 µM | 14.5 µM | 28.2 µM | 34.5 µM | 40.4 µM | 22.8 µM | – | 21.1 µM | 13.8 µM | – | – | – | – | – | – | – |
| CC(=O)/C=C/C=C(\C)CC/C=C(\C)CC(C)C | – | > 100 µM | 34 µM | > 100 µM | > 100 µM | 38.4 µM | > 100 µM | 68.6 µM | 60 µM | 54.9 µM | – | – | – | – | – | – | – |
| NC(Cc1cc(I)c(O)c(I)c1)C(=O)O (configuration not stated) | > 500 µM | – | > 361 µM | 249 µM | > 500 µM | > 500 µM | > 393 µM | > 500 µM | > 354 µM | > 356 µM | – | – | – | – | – | – | – |
| CS(=O)(=O)OCCN1CCC2(CC1)SSC1(CCN(CCOS(C)(=O)=O)CC1)S2 | 68.1 µM | > 100 µM | 97.8 µM | 44.9 µM | 93.2 µM | 29.6 µM | > 100 µM | – | > 100 µM | > 100 µM | – | – | – | – | – | – | – |
| COc1cccc(NC(=O)CSc2nnc(-c3ccc(N=Cc4ccc(Cl)cc4)cc3)o2)c1 | 39.3 µM | 30.3 µM | 37.7 µM | – | – | 65.1 µM | 29.8 µM | 43.4 µM | – | 41.1 µM | – | – | – | – | – | – | – |
